Measurements reported in PubChem BioAssay (NCI).
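1) Cells in 96-well plates. 2) Compound, 48 h, 5 concentrations. 3) Linear interpolation between surrounding doses. 4) Unreached endpoint = highest concentration. TGI marks complete inhibition of growth.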

Assays:
Assay in all cases: growth of human tumour cells (NCI), 48 h
SF-539 CNS = tested on: SF-539 CNS
RXF 393 renal = tested on: RXF 393 renal
EKVX NSCLC = tested on: EKVX NSCLC
KM12 colon = tested on: KM12 colon
SF-268 CNS = tested on: SF-268 CNS
SK-MEL-2 melanoma = tested on: SK-MEL-2 melanoma
OVCAR-8 ovarian = tested on: OVCAR-8 ovarian
DMS 114 small cell lung = tested on: DMS 114 small cell lung
HCT-116 colon = tested on: HCT-116 colon
UO-31 renal = tested on: UO-31 renal
OVCAR-5 ovarian = tested on: OVCAR-5 ovarian
U251 CNS = tested on: U251 CNS
UACC-62 melanoma = tested on: UACC-62 melanoma
HL-60(TB) leukemia = tested on: HL-60(TB) leukemia
KM20L2 colon = tested on: KM20L2 colon
OVCAR-4 ovarian = tested on: OVCAR-4 ovarian
DMS 273 small cell lung = tested on: DMS 273 small cell lung
MDA-MB-231 breast = tested on: MDA-MB-231 breast
BT-549 breast = tested on: BT-549 breast
MCF7 breast = tested on: MCF7 breast

Measured: TGI

CN/N=C(\C(=O)Nc1ccc(C(F)(F)F)cc1[N+](=O)[O-])C(c1cnc2ccc([N+](=O)[O-])cc2n1)[N+](=O)[O-] (configuration not stated)
> 100 µM: SF-539 CNS | RXF 393 renal | KM12 colon | SF-268 CNS | SK-MEL-2 melanoma | OVCAR-8 ovarian | DMS 114 small cell lung | HCT-116 colon | UO-31 renal | U251 CNS
79.5 µM: OVCAR-5 ovarian
65.9 µM: EKVX NSCLC

O=C(O[C@H]1[C@@H]2C=CO[C@@H](OC3OC(CO)C(O)C(O)C3O)[C@@H]2[C@@]2(CO)O[C@@H]12)c1ccc(O)c(O)c1 (some centres not stated)
not listed: DMS 114 small cell lung | HCT-116 colon | MDA-MB-231 breast | BT-549 breast | MCF7 breast
> 100 µM: all other assays above

O=C1NC(=NCc2ccc(F)cc2)N/C1=C\c1ccccc1Cl
53.9 µM: KM12 colon
29.8 µM: UACC-62 melanoma
> 100 µM: SF-539 CNS
74.3 µM: OVCAR-4 ovarian
54.8 µM: MCF7 breast
41.8 µM: MDA-MB-231 breast
48.2 µM: RXF 393 renal
33.3 µM: SK-MEL-2 melanoma
29.3 µM: OVCAR-8 ovarian
30.3 µM: HCT-116 colon
41 µM: OVCAR-5 ovarian
56.8 µM: BT-549 breast
30.4 µM: U251 CNS
58.2 µM: EKVX NSCLC
36.5 µM: HL-60(TB) leukemia
59.9 µM: SF-268 CNS

CC1=C[C@H]([C@H]2C=C(C)C(C(N)=O)=CN2Cc2c(Cl)cccc2Cl)N(Cc2c(Cl)cccc2Cl)C=C1C(N)=O
not listed: DMS 114 small cell lung | KM20L2 colon | DMS 273 small cell lung
> 75 µM: all other assays above

Nc1ncnc2c1ncn2[C@@H]1O[C@H](COP(=O)(O)OP(=O)(O)OC[C@H]2O[C@@H](OCCCO)[C@H](O)[C@@H]2O)[C@@H](O)[C@H]1O
not listed: DMS 114 small cell lung | KM20L2 colon | DMS 273 small cell lung
> 100 µM: all other assays above

COC(=O)[C@@H]1C[C@]2(Br)c3ccccc3N(S(=O)(=O)c3ccccc3)[C@@H]2N1C(=O)OC
61.8 µM: RXF 393 renal
not listed: DMS 114 small cell lung | KM20L2 colon | DMS 273 small cell lung
> 100 µM: all other assays above

Cc1cc2c(=O)c(C)n[nH]c2c(C#N)c1C
not listed: KM12 colon | SK-MEL-2 melanoma | DMS 114 small cell lung | OVCAR-4 ovarian | MDA-MB-231 breast | BT-549 breast | MCF7 breast
> 100 µM: all other assays above
